Measurements from patent US20020111360A1, “Quinazoline formulations and therapeutic use thereof” (PARKER HUGHES INSTITUTE, priority 1999, published 2002).
Structures can show the parent of a compound that is named as a salt.

Experiments:
Assay type in all cases: physicochemical
[1] = Solubilization of WHI-P131 in water-cosolvent mixtures and micellar solutions; conditions: for Solubility: aqueous with cosolvent or surfactant or cyclodextrin
Experimental: To further determine the effect of cosolvents on the solubility behavior of WHI-P131, the solubility of WHI-P131 chloride salt was carried out in binary mixtures of water-cosolvents. Solvents including ethanol, propylene glycol, and PEGs are used in several injectable formulations, and were considered here as possible vehicles for WHI-P131. […] However, at PEG concentrations greater than 70%, there was a large difference between the solubility behavior of WHI-P131 in water-PEG300 and water-PEG200 mixtures. For PEG300, the solubility continued to increase linearly with increasing PEG concentration, whereas for PEG200, a large increase in slopes occurred near 100% PEG200. Since the solubility-PEG300 concentration curve is linear over the entire range of water-PEG300 mixtures, WHI-P131 solubilized in these mixtures at concentrations below its saturation point can be used as vehicles for this compound, since their dilution will not result in drug precipitation. […] Therefore, PEG300 is more appropriate for use as a cosolvent vehicle in the formulations of WHI-P131.
Micellar solutions containing PEGylated phosphatidylethanolamines were exceptionally effective in enhancing the solubilization of WHI-P131. […] Micellar solutions using purified soya lecithin (Phospholipon 90G) were feasible when an equal or higher amount of a nonionic surfactant (such as Cremophor EL for example) was also present. With PEGylated phospholipids, the presence of Cremophor EL was not necessary to form micellar solutions. In addition, an anionic PEGylated phosphatidylethanolamine seemed to be a better solubilizer for WHI-P131 than Phospholipon (mostly phosphotidylcholine). The enhanced solubilization observed with micellar solutions was apparently due to the charge interaction between the cationic WHI-P131 and anionic PEGylated phosphatidylethanolamine.
To determine the solubilization enhancement by different types of surfactants in a more quantitative manner, solubility-surfactant concentration curves were plotted. FIG. 2 depicts the amount of solubilized WHI-P131 chloride in a solution containing 20% of PEG300, and an increasing amount of PEG2000-DPPE. […] At low surfactant concentrations (below the CMC), the drug solubilization seems to remain unchanged, then increases linearily with surfactant concentration at higher PEG2000-DPPE concentration. […] In Table 8, the slopes of the linear portions of the plot for a series of nonionic surfactants and cosolvents were used to calculate the solubilization enhancement per unit surfactant or cosolvent concentration.
The solubilization enhancement, as represented by the amount of solubilized WHI-P131 (in milligram) per gram of surfactant, are shown in Table 8 to vary with the type of surfactants used. For the three PEGylated phosphatidylethanolamines, the solubilization enhancement depended on the hydrophobic chain length and polyoxyethylene number of the PEGylated phospholipids. […] Also shown in Table 8 for comparison purposes are the solubilization enhancements produced by the use of cosolvents.

[2] = Solubility of WHI-P131 free base and chloride salt in various liquids
Experimental: The solubility of WHI-P131 free base was measured in water, propylene glycol, polyethylene glycols (PEGs), ethanol, and triglycerides. The solubility of WHI-P131 is very poor in water. It was about 35 times more soluble in C8-C10 medium chain triglyceride (Captex 300) than in water. It was much more soluble in ethanol and hydrophilic cosolvents such as propylene glycol and PEGs.
Parallel solubility measurements were also carried out using WHI-P131 chloride salt. […] In contrast, the solubility of WHI-P131 chloride decreased drastically in all other liquids. […] This fact underscores the importance of knowing the solubility profile of both the free base and salt forms of an ionizable compound when making choices of its delivery vehicles.

[3] = Solubilization of WHI-P131 in microemulsions; conditions: microemulsion formulation vs free base in water
From the text: A series of ternary phase diagrams were constructed at room temperature, and several microemulsions within the single phase microemulsion region were examined for their capacity to solubilize WHI-P131. […] In this phase diagram, it can be seen that microemulsions containing up to 30% of Captex 300 were possible. These microemulsions were transparent and tolerated dilution very well when mixed with aqueous phases. In WHI-P131-containing microemulsions, the drug was first solubilized in the microemulsions chosen from the one phase region of the phase diagram with mild heating, followed by dilution with water or buffer solution at room temperature.
The microemulsion composition ME1 depicted in Table 9 was used in pharmacokinetic studies and biological activity assays. This microemulsion was prepared by first solubilizing WHI-P131 in composition A in the ternary phase diagram, followed by a dilution with water (1:9). […] ME2 was a microemulsion composition obtained from a separate phase diagram not shown. […] These microemulsions can readily be filtered through 0.2 μm filter, and stored at room temperature.

Row | Solubility ([1]; 20% PEG300 in water, chloride salt, 20% PEG300, no surfactant, read-out: Solubility in 20% PEG300) [µg/mL] | Solubility ([2]; Captex 300) [µg/mL] | Solubility ([2]; Ethanol) [µg/mL] | Solubility ([2]; PEG200) [µg/mL] | Solubility ([2]; PEG300) [µg/mL] | Solubility ([2]; Propylene glycol) [µg/mL] | Solubility ([2]; Water) | Solubility ([2]; Water, listed as WHI-P131 salt) [µg/mL] | Solubility ([1]; 20% PEG300 plus 3% PEG2000-DPPE micellar solution, chloride salt, 20% PEG300 plus 3% PEG2000-DPPE, read-out: Drug solubilization in cosolvent/micellar vehicle) [µg/mL] | Solubilized WHI-P131 (mg) per gram of surfactant or solvent ([1]; PEG200, Cosolvent) [mg per gram] | Solubilized WHI-P131 (mg) per gram of surfactant or solvent ([1]; PEG300, Cosolvent) [mg per gram] | Solubilized WHI-P131 (mg) per gram of surfactant or solvent ([1]; PEG400, Cosolvent) [mg per gram] | Solubilized WHI-P131 (mg) per gram of surfactant or solvent ([1]; PEG2000-PE (14:0), Micellar solution) [mg per gram] | Solubilized WHI-P131 (mg) per gram of surfactant or solvent ([1]; PEG2000-PE (16:0), Micellar solution) [mg per gram] | Solubilized WHI-P131 (mg) per gram of surfactant or solvent ([1]; PEG5000-PE (18:0), Micellar solution) [mg per gram] | Solubilized WHI-P131 (mg) per gram of surfactant or solvent ([1]; Pluronic F-68, Micellar solution) [mg per gram] | Solubility in 20% PEG300 ([1]; chloride salt, 20% PEG300, no surfactant) [µg/mL] | Total solubilization enhancement ([1]; cosolvent/micellar solution vs free base in water) [fold] | Total solubilization enhancement [3] [fold] | Solubility in C8-C10 medium chain triglyceride (Captex 300) relative to water ([2]; Captex 300 vs water) | Structure (SMILES)
1 | 2380 | 12 ± 2 | 631 ± 7 | 25120 ± 720 | 10100 ± 3600 | 1610 ± 90 | 1240 ± 90 µg/mL | 1200 |  |  |  |  |  |  |  |  |  |  |  |  | COc1cc2ncnc(Nc3ccc(O)cc3)c2cc1OC [WHI-P131 Chloride salt, 4-(4′-Hydroxylphenyl)-amino-6,7-dimethoxyquinazoline]
2 |  |  |  |  |  |  | very poor |  | 4700 | 5.3 | 5.8 | 6.2 | 76.6 | 92.0 | 37.5 | 6.1 | 2200 | 190 | 110 | about 35 times | COc1cc2ncnc(Nc3ccc(O)cc3)c2cc1OC [WHI-P131, 4-(4′-Hydroxylphenyl)-amino-6,7-dimethoxyquinazoline]
